Experimental findings from patent US20230340498A1, “COMPOSITIONS AND METHODS FOR INDUCIBLE ALTERNATIVE SPLICING REGULATION OF GENE EXPRESSION” (The Children's Hospital of Philadelphia, priority 2020, published 2023) are described below.

One assay has as its system SMN2 exon 7. Description: SMN2-on cassette exon 7 splicing assay (RT-PCR) in transfected HEK293 cells. Particulars: LMI070 compared with RG7800. Type of assay: cell-based, Human. The procedure:
Cell culture, transfection, and LMI070/RG7800 treatment. Human embryonic kidney (HEK293) cells (obtained from CHOP Research Vector Core stock) were maintained in DMEM media containing 10% Fetal Bovine Serum (FBS), 1% L-Glutamine and 1% penicillin/streptomycin at 37° C. with 5% CO2. Cells were cultured in 24 well plates and transfected at 80-90% confluence using Lipofectamine 2000 transfection reagent, according to the manufacturer’s protocol. For all experiments, 4 hours after plasmid transfection, cells were treated with LMI070 (MedChemExpress, HY-19620, suspended in DMSO) or RG7800 (MedChemExpress, HY-101792A, suspended in H2O) at the indicated concentrations. Cells were tested for mycoplasma by Research Vector Core. […]
RNA extraction, RT-PCR, and Splicing assays. […] To determine HTT expression levels after transfection, RNA samples were quantified by spectrophotometry and subsequently cDNAs generated from […] of total RNA with random hexamers (TaqMan RT reagents, Applied Biosystems). […] Relative HTT gene expression was determined using the ddCt method. […] Splicing was determined by PCR using the Phusion High-Fidelity polymerase (Thermofisher) and PCR products separated on a 2.5% agarose gel pre-stained with EtBr and spliced-in and spliced-out band densitometry performed using with the ChemiDoc Imaging System (BioRad) and Image Lab analysis software. […]

A further assay has as its system HEK293 cells. Description: RNA-Seq of HEK293 cells treated with LMI070 for LMI070-induced splicing events. It counts as cell-based, Human. Particulars: HEK293, 25 nM LMI070 for 12 hours. The procedure: Tables 1A-1E provide the genomic locations of candidate LMI070-induced exons and the frequency of events from RNA-Seq datasets. Summarized here are the differentially expressed candidate LMI070-induced splicing positions as identified by RNA-Seq of HEK293 cells treated with either DMSO or LMI070 (25 nM). All candidates shown were manually selected from a bioinformatically generated list of top hits based on their suitability for construction of an exon switching genomic minigene, their exclusivity to the LMI070 condition, and their minimal to undetectable levels in DMSO treated cells. The top 25 rows of each table indicate hits observed exclusively upon LMI070 exposure. The following 22 rows of each table indicate candidates where splicing was enriched but not totally exclusive to LMI070 treatment.
Table 1A provides the GRCh38 genomic positions used to create the splice event-containing genomic minigene, the GRCh38 genomic positions of the pseudoexon created by LMI070-induced splicing, the number of exon-exon junction spanning reads observed with DMSO treatment, and the number of exon-exon junctions spanning reads observed with LMI070 treatment. […]
RNA-Seq Methods. […] Splice junction output by STAR were quantified using a custom R script designed to identify splicing events unique to LMI070 treatment. Top ranking LMI070-exclusive splice events were manually assessed for their applicability to function as a splicing switch. […] Candidate splice events were visually evaluated using the Sashimi plot function available in IGV (Thorvaldsdottir et al., 2013; Katz et al., 2015).
Next, exons that were more sensitive to LMI070 to reduce non-target splice events were sought out. […] Reads obtained from 4 control and 4 LMI070 treated samples were aligned to the genome using the STAR aligner (Dobin & Gingeras, 2015) and splicing events exclusive to the LMI070 treated samples identified (FIGS. 2A and 2F-2N; Table 1). […]

Turning to `CC1(C)CC(Oc2ccc(-c3ccc(-c4cn[nH]c4)cc3O)nn2)CC(C)(C)N1` [LMI070, 5-(1H-Pyrazol-4-yl)-2-(6-((2,2,6,6-tetramethylpiperidin-4-yl)oxy)pyridazin-3-yl)phenol], the “relative activity in the setting of the SMN2-on cassette” value with SMN2 exon 7 is recorded as “more active than RG7800”. In the assay with HEK293 cells, the “events evident in all treated and in one of the control untreated samples” value is on record as 22; the “events found exclusively and in all LMI070 treated samples” value is listed as 23. In the assay with HEK293 cells (threshold average greater than 5 novel intron splicing events), the “novel splicing events identified following LMI070 treatment” value came out at 45.
